Our source for the efflux ratio and Papp values is publication PMC7508583, “Discovery and Preclinical Development of Antigiardiasis Fumagillol Derivatives” (Antimicrobial Agents and Chemotherapy, 2020).

This series can be described thus: in vitro. Particulars: human; for Papp at 120 min, 10 µM: Caco-2, pH 7.4, Mean ± SE Papp, Caco-2, 10 μM. The source says:
Next, we tested the permeation of the compounds across polarized Caco-2 cell monolayers, a method that is widely used as an in vitro model of the human small intestinal mucosa to predict the absorption of orally administered drugs ([63], [64]). With noninvasive intestinal infections, there is no need to establish a high plasma concentration. Since a high rate of uptake through the host gut lining could increase compound toxicity, we sought to reduce gut absorption. […] Both apical-to-basal and basal-to-apical permeation values were measured to obtain information about efflux. […] The efflux machinery is currently unknown.
Passage 36 Caco-2 cells were used. The cells were cultured in Dulbecco’s modified Eagle’s medium (DMEM; 5 ml of 100 mM sodium pyruvate, 5 ml of 100× nonessential amino acids, 5 ml of penicillin-streptomycin, and 100 ml of heat-inactivated fetal bovine serum added to 385 ml of DMEM aseptically and mixed thoroughly), pH 7.4, at 37°C in 5% CO2. DMEM (250 μl) was added to the basal compartment of 96-well multiscreen Caco-2 cell plate consisting of high-pore-density polycarbonate (Millipore) with a 0.4-μm pore size and a 0.11-cm^2 active membrane area. The cells were seeded at a density of 12,000 cells/well (0.16 × 10^6 cells/ml) in the apical wells, with one well containing only medium as blank. The Caco-2 cell plate was placed in a CO2 incubator at 37°C for cell proliferation. On the day of assay, the medium was removed, washed twice with Hanks balanced salt solution (HBSS) buffer supplemented with 2% bovine serum albumin (BSA), pH 7.4, and incubated with the HBSS buffer for 30 min at 37°C. Wells with transepithelial electrical resistance values of greater than 230 Ω · cm^2 were selected for the experiments. […] The assay was performed in duplicate.
Seventy-five microliters of the test compounds was added to the apical wells, and 250 μl of HBSS buffer with 2% BSA was added to the basal wells. The plate was incubated in a CO2 incubator with shaking on a plate shaker at 150 rpm for 120 min, after which 25 μl of the basal samples was collected and processed.
Two hundred fifty microliters of test compounds was added to the basal wells, and 75 μl of HBSS buffer with 2% BSA was added to the apical wells. The plate was incubated in a CO2 incubator with shaking on a plate shaker at 150 rpm for 120 min, after which 25 μl of the apical samples was collected and processed.
For sample processing, a single-point calibration curve in HBSS buffer with 2% BSA was used. Donor samples were diluted 1:1 with HBSS containing 2% BSA, and receiver samples were diluted with 1:1 HBSS buffer and precipitated with 200 μl of acetonitrile containing internal standard. The samples were vortexed for 5 min at 1,000 rpm and centrifuged at 4,000 rpm for 10 min. One hundred microliters of the supernatant was diluted with 200 μl of water and analyzed by LC-MS/MS (with a Shimadzu ultrafast liquid chromatograph and an API 4000 LC-MS/MS system).
The apparent permeation coefficients (Papp) were calculated as Papp = (dQ/dT) × (1/C0) × (1/A), where dQ is the amount permeated to the receiver compartment of the 96-well plate, dT is the time of compound incubation, C0 is the initial compound concentration in the donor compartment of the well, and A is the surface area of the monolayer.

In general, efflux ratio refers to a quotient of directional permeabilities that is used to spot active efflux. What is called Papp is a coefficient for how fast a substance crosses the barrier. The low end stands for poor permeation, the high end for ready permeation.

For the compound `CC(C)NCC(O)COc1cccc2ccccc12` (stereo not drawn) [Propranolol, reference compound], the efflux ratio at 120 min, 10 µM (Caco-2, pH 7.4) was 0.36. For the same compound, the apparent permeability coefficient (Papp) at 120 min, 10 µM by setting is: (apical to basal) 22.6 ± 1.1 ×10⁻⁶ cm/s; (basal to apical) 8.14 ± 0.28 ×10⁻⁶ cm/s.
